Experimental data as given in US12600714B2, “Substituted pyrazinecarboxamide compounds for treating diseases related to EGFR mutation” (WIGEN BIOMEDICINE TECHNOLOGY (SHANGHAI) CO., LTD., priority 2020, dated 2026).

What follows are molecules tested on EGFR (del19/T790M/C797S) (assay: HTRF inhibitory activity assay against EGFR (del19/T790M/C797S) enzyme).
Assay type: biochemical
Description: Inhibitory Activity Assay of the Compounds Disclosed Herein Against EGFR (del19/T790M/C797S), EGFR (L858R/T790M/C797S) or EGFR (WT) Enzymes
The inhibitory effects of the compounds against EGFR (del19/T790M/C797S), EGFR (L858R/T790M/C797S) or EGFR (WT) enzyme activity was determined by using HTRF. The procedures are as follows:
The WT or mutant EGFR proteins were incubated with a serially diluted compounds at 28° C. for 10 min followed by addition of biotin-labeled general tyrosine kinase (TK) substrate and ATP. The mixture was incubated at room temperature for 40 min for reaction. After the termination of the reaction, an Eu3+-Cryptate-labeled antibody against TK and streptavidin-XL665 were added and the mixture was incubated at room temperature for 60 min. The luminescences at 615 nm and 665 nm were detected and the ratio of 665/615 was calculated to quantify the level of TK substrate phosphorylation. Inhibition % and IC50 of the compounds were calculated relative to the control group.

Row | SMILES | EGFR (del19/T790M/C797S) inhibition (%) (0.3 nM compound)
1 | CN1CCN(C2CCN(c3ccc(Nc4nc(NC5CC5)c(-c5ccncc5)nc4C(N)=O)cc3F)CC2)CC1 [compound 632] | +++ (+++ indicates an inhibition greater than 50%.)
2 | COc1cc(Nc2nc(NC3CCOCC3)c(-c3ccccc3)nc2C(N)=O)ccc1N1CCC(N2CCN(C)CC2)CC1 [compound 112] | + (+ indicates an inhibition less than or equal to 20%)
3 | CN1CCN(C2CCN(c3ccc(Nc4nc(NC5CCOCC5)c(-c5ccccc5F)nc4C(N)=O)cc3)CC2)CC1 [compound 62] | + (+ indicates an inhibition less than or equal to 20%)
4 | COc1ccc(-c2nc(C(N)=O)c(Nc3ccc(N4CCC(N5CCN(C)CC5)CC4)cc3)nc2NC2CCOCC2)cc1 [compound 45] | + (+ indicates an inhibition less than or equal to 20%)
5 | CN1CCN(C2CCN(c3ccc(Nc4nc(NC5CC6(COC6)C5)c(-c5ccnc6[nH]ccc56)nc4C(N)=O)cc3F)CC2)CC1 [compound 630] | +++ (+++ indicates an inhibition greater than 50%.)
6 | CC(C)Nc1nc(Nc2ccc(N3CCC(N4CCN(C)CC4)CC3)c(F)c2)c(C(N)=O)nc1-c1ccncc1 [compound 635] | +++ (+++ indicates an inhibition greater than 50%.)
7 | CN1CCN(C2CCN(c3ccc(Nc4nc(NC5CCCC5O)c(-c5cc[nH]n5)nc4C(N)=O)cc3F)CC2)CC1 (stereo not drawn) [compound 624] | ++ (++ indicates an inhibition from 20% to 50%)
8 | CN1CCN(C2CCN(c3ccc(Nc4nc(NC5CCOCC5)c(-c5ccccc5C(F)F)nc4C(N)=O)cc3)CC2)CC1 [compound 82] | + (+ indicates an inhibition less than or equal to 20%)
9 | CN(C)CCCNc1nc(Nc2ccc(N3CCC(N4CCN(C)CC4)CC3)cc2)c(C(N)=O)nc1-c1ccccc1 [compound 117] | + (+ indicates an inhibition less than or equal to 20%)
10 | CN1CCN(C2CCN(c3ccc(Nc4nc(NC5CCOCC5)c(-c5cccc(N)c5)nc4C(N)=O)cc3)CC2)CC1 [compound 92] | ++ (++ indicates an inhibition from 20% to 50%)
11 | CN1CCN(C2CCN(c3ccc(Nc4nc(NC5CC6(COC6)C5)c(-c5ccncc5)nc4C(N)=O)cc3)CC2)CC1 [compound 633] | +++ (+++ indicates an inhibition greater than 50%.)
12 | CN1CCN(C2CCN(c3ccc(Nc4nc(NC5CCOCC5)c(-c5cccc(S(C)(=O)=O)c5)nc4C(N)=O)cc3)CC2)CC1 [compound 44] | + (+ indicates an inhibition less than or equal to 20%)
13 | CN1CCN(C2CCN(c3ccc(Nc4nc(NC5CCOCC5)c(-c5cccc(Cl)c5)nc4C(N)=O)cc3)CC2)CC1 [compound 61] | ++ (++ indicates an inhibition from 20% to 50%)
14 | CN1CCN(C2CCN(c3ccc(Nc4nc(NCCC(C)(C)O)c(-c5ccccc5)nc4C(N)=O)cc3)CC2)CC1 [compound 22] | + (+ indicates an inhibition less than or equal to 20%)
15 | CN1CCN(C2CCN(c3ccc(Nc4nc(NC5CCOCC5)c(-c5cncnc5)nc4C(N)=O)cc3)CC2)CC1 [compound 72] | + (+ indicates an inhibition less than or equal to 20%)
16 | CN1CCN(C2CCN(c3ccc(Nc4nc(NC5CCOCC5)c(-c5ccc(Cl)cc5)nc4C(N)=O)cc3)CC2)CC1 [compound 65] | ++ (++ indicates an inhibition from 20% to 50%)
17 | CN1CCN(C2CCN(c3ccc(Nc4nc(NC5CCOCC5)c(-c5ccc(F)cc5)nc4C(N)=O)cc3)CC2)CC1 [compound 64] | + (+ indicates an inhibition less than or equal to 20%)
18 | [2H]C([2H])([2H])N1CCN(C2CCN(c3ccc(Nc4nc(NC5CCOCC5)c(-c5ccccn5)nc4C(N)=O)cc3)CC2)CC1 [compound 206] | ++ (++ indicates an inhibition from 20% to 50%)
19 | CN1CCN(C2CCN(c3ccc(Nc4nc(NC5CC6(COC6)C5)c(-c5ccncc5)nc4C(N)=O)cc3F)CC2)CC1 [compound 634] | +++ (+++ indicates an inhibition greater than 50%.)
20 | CN1CCN(C2CCN(c3ccc(Nc4nc(NC5CC6(COC6)C5)c(-c5cc[nH]n5)nc4C(N)=O)cc3)CC2)CC1 [compound 627] | ++ (++ indicates an inhibition from 20% to 50%)
21 | CN1CCN(C2CCN(c3ccc(Nc4nc(N[C@@H]5CC[C@H](O)C5)c(-c5ccccc5)nc4C(N)=O)cc3)CC2)CC1 [compound 136, 5-(((1R,3S)-3-hydroxycyclopentyl)amino)-3-((4-(4-(4-methylpiperazin-1-yl)piperidin-1-yl)phenyl)amino)-6-phenylpyrazine-2-carboxamide] | ++ (++ indicates an inhibition from 20% to 50%)

Row | SMILES | EGFR (del19/T790M/C797S) inhibition (%) (0.3 nM compound)
22 | NC(=O)c1nc(-c2ccccn2)c(NC2CCOC3(CC3)C2)nc1Nc1ccc(N2CCC(N3CCN(C4CC4)CC3)CC2)cc1 (stereo not drawn) [compound 264] | ++ (++ indicates an inhibition from 20% to 50%)
23 | CN1CCN(C2CCN(c3ccc(Nc4nc(NC5CCOCC5)c(-c5ccn(C)n5)nc4C(N)=O)cc3)CC2)CC1 [compound 49] | + (+ indicates an inhibition less than or equal to 20%)
24 | CN1CCN(C2CCN(c3ccc(Nc4nc(NC5COC5)c(-c5cccc6[nH]ccc56)nc4C(N)=O)cc3F)CC2)CC1 [compound 595] | +++ (+++ indicates an inhibition greater than 50%.)
25 | CN1CCN(C2CCN(c3ccc(Nc4nc(N5CCCC5)c(-c5ccccc5)nc4C(N)=O)cc3)CC2)CC1 [compound 17] | + (+ indicates an inhibition less than or equal to 20%)
26 | CN1CCN(C2CCN(c3ccc(Nc4nc(N5CCCCC5)c(-c5ccccc5)nc4C(N)=O)cc3)CC2)CC1 [compound 15] | + (+ indicates an inhibition less than or equal to 20%)
27 | NC(=O)c1nc(-c2ccccn2)c(NC2CCOCC2)nc1Nc1ccc(N2CCC(N3CCN(C4CC4)CC3)CC2)cc1 [compound 207] | ++ (++ indicates an inhibition from 20% to 50%)
28 | CN1CCN(C2CCN(c3ccc(Nc4nc(N5CCC(O)C5)c(-c5ccccc5)nc4C(N)=O)cc3)CC2)CC1 (stereo not drawn) [compound 29] | ++ (++ indicates an inhibition from 20% to 50%)
29 | CN1CCN(C2CCN(c3ccc(Nc4nc(NC5CC5)c(-c5ccncc5)nc4C(N)=O)cc3)CC2)CC1 [compound 631] | +++ (+++ indicates an inhibition greater than 50%.)
30 | CN1CCN(C2CCN(c3ccc(Nc4nc(NC5CCOCC5)c(-c5cccc(C(F)F)c5)nc4C(N)=O)cc3)CC2)CC1 [compound 105] | + (+ indicates an inhibition less than or equal to 20%)
31 | CN1CCN(C2CCN(c3ccc(Nc4nc(NC5CCOCC5)c(-c5ccccc5CO)nc4C(N)=O)cc3)CC2)CC1 [compound 71] | + (+ indicates an inhibition less than or equal to 20%)
32 | CN1CCN(C2CCN(c3ccc(Nc4nc(NC5CC5)c(-c5ccnc6[nH]ccc56)nc4C(N)=O)cc3)CC2)CC1 [compound 610] | +++ (+++ indicates an inhibition greater than 50%.)
33 | CN1CCN(C2CCN(c3ccc(Nc4nc(NC5CCCC5)c(-c5ccccc5)nc4C(N)=O)cc3)CC2)CC1 [compound 9] | + (+ indicates an inhibition less than or equal to 20%)
34 | CN1CCN(C2CCN(c3ccc(Nc4nc(NC5CCOCC5)c(C5=CCNC5)nc4C(N)=O)cc3)CC2)CC1 [compound 68] | + (+ indicates an inhibition less than or equal to 20%)
35 | CN1CCN(C2CCN(c3ccc(Nc4nc(N[C@H]5CCOC5)c(-c5ccncc5)nc4C(N)=O)cc3)CC2)CC1 [compound 644] | +++ (+++ indicates an inhibition greater than 50%.)
36 | CC(C)Nc1nc(Nc2ccc(N3CCC(N4CCN(C)CC4)CC3)cc2)c(C(N)=O)nc1-c1ccnc2[nH]ccc12 [compound 609] | +++ (+++ indicates an inhibition greater than 50%.)
37 | CN1CCN(C2CCN(c3ccc(Nc4nc(NC5CCCC5(C)O)c(-c5ccccc5)nc4C(N)=O)cc3)CC2)CC1 (stereo not drawn) [compound 8] | + (+ indicates an inhibition less than or equal to 20%)
38 | CN1CCN(C2CCN(c3ccc(Nc4nc(N[C@H]5C[C@@H](O)C5)c(-c5cc[nH]n5)nc4C(N)=O)cc3F)CC2)CC1 [compound 620] | ++ (++ indicates an inhibition from 20% to 50%)
39 | CN1CCN(C2CCN(c3ccc(Nc4nc(N[C@H]5C[C@@H](O)C5)c(-c5cc[nH]n5)nc4C(N)=O)cc3)CC2)CC1 [compound 614] | +++ (+++ indicates an inhibition greater than 50%.)
40 | CN1CCN(C2CCN(c3ccc(Nc4nc(N[C@H]5C[C@H](O)C5)c(-c5cc[nH]n5)nc4C(N)=O)cc3F)CC2)CC1 [compound 621] | +++ (+++ indicates an inhibition greater than 50%.)
41 | CN1CCN(C2CCN(c3ccc(Nc4nc(NC5CCCC5O)c(-c5cc[nH]n5)nc4C(N)=O)cc3)CC2)CC1 (stereo not drawn) [compound 618] | ++ (++ indicates an inhibition from 20% to 50%)
42 | CN1CCN(C2CCN(c3ccc(Nc4nc(NC5CCC(O)C5)c(-c5cc[nH]n5)nc4C(N)=O)cc3F)CC2)CC1 (stereo not drawn) [compound 623] | +++ (+++ indicates an inhibition greater than 50%.)
